Counter-ions that a name gives are not always drawn.
Assay: Oral (sublingual) administration of 5 mg asenapine maleate to healthy adult men
Format: in vivo, human
Settings: 5 mg asenapine maleate sublingual, healthy adult men (18)
Experimental: The N-desmethyl asenapine tends to cause adverse effects such as adverse effects on the cardiovascular system in comparison with asenapine. For example, in a case where 5 mg of asenapine maleate is orally administered (sublingual administration), the area under plasma concentration-time curve of the free asenapine for a period between 10 minutes and 72 hours (AUC0.17.72) can be 25,000 to 38,000 pg·hr/mL. In this case, N-desmethyl asenapine has an AUC0.17.72 of 10,000 to 17,000 pg·hr/mL, which is 40% or more of the […] of the free asenapine. In contrast, when approximately the same amount (4.8 mg) of asenapine is administrated using the patch of the present invention comprising the isopropyl palmitate in the adhesive agent layer, this makes it possible to sufficiently suppress the AUC of the asenapine metabolite while the free asenapine has an AUC equivalent to that in the case of the oral administration.
Furthermore, in a case where the patch obtained in Example 2 was administrated, the incidence proportion of adverse effects on the cardiovascular system in the AUC measurement test was 6%. […]

CN1C[C@@H]2c3ccccc3Oc3ccc(Cl)cc3[C@H]2C1 (relative stereo) [asenapine maleate, trans-5-chloro-2-methyl-2,3,3a,12b-tetrahydro-1H-diben z[2,3:6,7]oxepino[4,5-c]pyrrole]
incidence proportion of adverse effects on the cardiovascular system: 39%
AUC0.17.72 of the free asenapine (average value) (plasma, 10 minutes to 72 hours): 32,074 pg·hr/mL

— patent publication US10814002B2, “Patch and method for producing the same” (HISAMITSU PHARMACEUTICAL CO., INC., priority 2012, dated 2020)
